The test concerns the target T1, PTP-1B (Homo sapiens, UniProt P18031).
T1 construct: PTP-1B (purified, 1 mg/mL) as a 1:250 dilution
T1 sequence (P18031 1-321 limits assumed): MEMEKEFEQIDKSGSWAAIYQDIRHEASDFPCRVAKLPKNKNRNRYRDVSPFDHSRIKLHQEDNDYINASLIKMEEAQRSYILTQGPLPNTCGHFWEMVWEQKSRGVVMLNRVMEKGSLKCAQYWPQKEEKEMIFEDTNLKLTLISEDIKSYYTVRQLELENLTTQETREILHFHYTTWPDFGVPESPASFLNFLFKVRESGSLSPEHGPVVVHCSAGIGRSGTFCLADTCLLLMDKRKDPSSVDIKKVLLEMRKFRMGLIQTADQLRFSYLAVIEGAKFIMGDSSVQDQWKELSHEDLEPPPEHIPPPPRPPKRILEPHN
The test can be described thus: pNPP assay for tyrosine phosphatase inhibitory activity. The test is classed as biochemical. The following applies: Table 1; pNPP substrate 10 mM, 30° C., 10 minutes, absorbance at 405 nm. As to the method:
The compounds provided herein are evaluated for biological activity as inhibitors of PTP-1B using, for example, a pNPP assay. Such an assay can be used to screen compounds for tyrosine phosphatase inhibitory activity as shown in Example 39.
A 5× stock of pNPP (p-nitrophenol phosphate) substrate is prepared as 50 mM pNPP in assay buffer. Various tyrosine phosphatase solutions can be prepared as follows: • PTP-1B (purified, 1 mg/mL) as a 1:250 dilution (to a final concentration of 4:g/mL); • TC-PTP (NEB, 1000 units in 100:L) as a 1:50 dilution (to a final concentration of 2 U/10:L (4:g/mL)); • CD45 (Calbiochem, 20:g, 400 units in 100: L) as a 1 :50 dilution (to a final concentration of 0.8 U/10:L (4:g/mL)); • LAR (NEB, 1000 units in 200:L) as a 1:75 dilution (to a final concentration of 0.7 U/10:L (4:g/mL)); and • PTP-β (UBI, #14-350, 10,000 units, 40:g/571:L) as a 1:17.5 dilution (to a final concentration of 10 U/10:L (4:g/mL));
The compound to be tested is prepared as 1:16.7 and 1:50 dilutions from stock in a total volume of 1 00:M DMSO to give final concentrations of 626 and 200:M. The reaction mixtures are prepared in a 96-well microtiter plate (on ice) as 55:L assay buffer, 5:L of the diluted compound (to a final concentration of 31.3 and 10:M), 20:L of the pNPP substrate solution (to a final concentration of 10 mM) and 20:L PTPase in assay buffer. The reactants are mixed well, the plate placed in a water bath at 30° C. and incubated for 10 minutes. The reaction is then terminated by adding 1 OO:L of 2M K2CO3 per well, and the absorbance is measured at 405 nm by conventional means.
Unless otherwise indicated, this assay was used to determine activity for the selected compounds whose activity is recorded in Table 1 and Table 2.

Some results are limits rather than exact numbers.

As a reminder, the IC50 is the concentration that inhibits the measured activity by half. Low values mean greater potency, high ones weaker potency. With `CS(=O)(=O)c1ccc(-c2cnc(N(Cc3ccc(/C=C/C(=O)O)c(Br)c3)c3ccc(Cl)c(Cl)c3)o2)cc1` [3-[2-Bromo-4-({(3,4-dichloro-phenyl)-(5-(4-methanesulfonyl-phenyl)-oxazol-2-yl]-amino}-methyl)-phenyl]-acrylic acid], the IC50 was 10000 to 100000 nM. In turn, `COC(=O)c1ccc(CN(Cc2ccc(C(F)(F)P(=O)(O)O)cc2)c2nnc(-c3cccc(Oc4ccccc4)c3)o2)cc1` [4-({[4-(Difluoro-phosphono-methyl)-benzyl]-[5-(3-phenoxy-phenyl)-[1,3,4]oxadiazol-2-yl]-amino}-methyl)-benzoic acid methyl ester] yielded an IC50 of 10000 to 100000 nM.

Turning to `O=C(O)c1ccc(CN(Cc2ccc(C(F)(F)P(=O)(O)O)cc2)c2nnc(-c3cccc(Oc4ccccc4)c3)o2)cc1` [4-({[4-(Difluoro-phosphono-methyl)-benzyl]-[5-(3-phenoxy-phenyl)-[1,3,4]oxadiazol-2-yl]-amino}-methyl)-benzoic acid], the IC50 lay within 1000 to 10000 nM. On to `O=P(O)(O)C(F)(F)c1ccc(CN(c2ccc(Cl)c(Cl)c2)c2ncc(-c3ccccc3)o2)cc1Br` [Example 1, [(2-Bromo-4-{[(3,4-dichloro-phenyl)-(5-phenyl-oxazol-2-yl)-amino]-methyl}-phenyl)-difluoro-methyl]-phosphonic acid], for which the IC50 lay in the range of 1000 to 10000 nM. On to `COC(=O)c1ccc(-c2cnc(N(Cc3ccc(C(F)(F)P(=O)(O)O)c(Br)c3)c3ccc(Cl)c(Cl)c3)o2)cc1` [Example 2, 4-{2-[[3-Bromo-4-(difluoro-phosphono-methyl)-benzyl]-(3,4-dichloro-phenyl)-amino]-oxazol-5-yl}-benzoic acid methyl ester], for which the IC50 was in the range of 500 to 1000 nM. Compound `O=C(O)c1ccc(-c2cnc(N(Cc3ccc(C(F)(F)P(=O)(O)O)c(Br)c3)c3ccc(Cl)c(Cl)c3)o2)cc1` [Example 3, 4-{2-[[3-Bromo-4-(difluoro-phosphono-methyl)-benzyl]-(3,4-dichloro-phenyl)-amino]-oxazol-5-yl}-benzoic acid] registered an IC50 of under 100 nM. The compound `COC(=O)c1ccc(-c2cnc(N(Cc3ccc(C(F)(F)P(=O)(O)O)c(Br)c3)c3ccccc3)o2)cc1` [Example 4, 4-(2-{[3-Bromo-4-(difluoro-phosphono-methyl)-benzyl]-phenyl-amino}-oxazol-5-yl)-benzoic acid methyl ester] yielded an IC50 of 1000 to 10000 nM. For `O=C(O)c1ccc(-c2cnc(N(Cc3ccc(C(F)(F)P(=O)(O)O)c(Br)c3)c3ccccc3)o2)cc1` [Example 5, 4-(2-{[3-Bromo-4-(difluoro-phosphono-methyl)-benzyl]-phenyl-amino}-oxazol-5-yl)-benzoic acid] the value was 100 to 500 nM; for `CS(=O)(=O)c1ccc(-c2cnc(N(Cc3ccc(C(F)(F)P(=O)(O)O)c(Br)c3)c3ccc(Cl)c(Cl)c3)o2)cc1` [Example 6, {[2-Bromo-4-({(3,4-dichloro-phenyl)-[5-(4-methanesulfonyl-phenyl)-oxazol-2-yl]-amino}-methyl)-phenyl]-difluoro-methyl}-phosphonic acid], under 100 nM. Consider `CCOP(=O)(OCC)C(F)(F)c1ccc(CN(c2ccc(Cl)c(Cl)c2)c2ncc(-c3ccc(Oc4ccc(C(=O)OC)cc4)cc3)o2)cc1Br` [Example 7, 4-(4-{2-[{3-Bromo-4-[(diethoxy-phosphoryl)-difluoro-methyl]-benzyl}-(3,4-dichloro-phenyl)-amino]-oxazol-5-yl}-phenoxy)-benzoic acid methyl ester], for which the IC50 lay within 10000 to 100000 nM.

`CCOP(=O)(OCC)C(F)(F)c1ccc(CN(c2ccc(Cl)c(Cl)c2)c2ncc(-c3ccc(S(C)(=O)=O)cc3)o2)cc1Br` [Example 8, {[2-Bromo-4-({(3,4-dichloro-phenyl)-[5-(4-methanesulfonyl-phenyl)-oxazol-2-yl]-amino}-methyl)-phenyl]-difluoro-methyl}-phosphonic acid diethyl ester]: the IC50 fell in the range of 10000 to 100000 nM. The compound `CCOP(=O)(O)C(F)(F)c1ccc(CN(c2ccc(Cl)c(Cl)c2)c2ncc(-c3ccc(S(C)(=O)=O)cc3)o2)cc1Br` [Example 9, {[2-Bromo-4-({(3,4-dichloro-phenyl)-[5-(4-methanesulfonyl-phenyl)-oxazol-2-yl]-amino}-methyl)-phenyl]-difluoro-methyl}-phosphonic acid monoethyl ester] yielded an IC50 of 10000 to 100000 nM. In turn, `COC(=O)c1ccc(Oc2ccc(-c3cnc(N(Cc4ccc(C(F)(F)P(=O)(O)O)c(Br)c4)c4ccc(Cl)c(Cl)c4)o3)cc2)cc1` [Example 10, 4-(4-{2-[[3-Bromo-4-(difluoro-phosphono-methyl)-benzyl]-(3,4-dichloro-phenyl)-amino]-oxazol-5-yl}-phenoxy)-benzoic acid methyl ester] registered an IC50 of 1000 to 10000 nM. As for `CC(C)(C)C(=O)OCOP(=O)(O)C(F)(F)c1ccc(CN(c2ccc(Cl)c(Cl)c2)c2ncc(-c3ccc(S(C)(=O)=O)cc3)o2)cc1Br` [Example 11, 2,2-Dimethyl-propionic acid {[2-bromo-4-({(3,4-dichloro-phenyl)-[5-(4-methanesulfonyl-phenyl)-oxazol-2-yl]-amino}-methyl)-phenyl]-difluoro-methyl}-hydroxy-phosphinoyloxymethyl ester], the IC50 was 10000 to 100000 nM. The result for `O=C(O)c1ccc(Oc2ccc(-c3cnc(N(Cc4ccc(C(F)(F)P(=O)(O)O)c(Br)c4)c4ccc(Cl)c(Cl)c4)o3)cc2)cc1` [Example 12, 4-(4-{2-[[3-Bromo-4-(difluoro-phosphono-methyl)-benzyl]-(3,4-dichloro-phenyl)-amino]-oxazol-5-yl}-phenoxy)-benzoic acid] reads 100 to 500 nM. Take `COC(=O)C(Oc1cccc(-c2cnc(N(Cc3ccc(C(F)(F)P(=O)(O)O)c(Br)c3)c3ccc(Cl)c(Cl)c3)o2)c1)c1ccccc1` (stereo not shown) [Example 13, (3-{2-[[3-Bromo-4-(difluoro-phosphono-methyl)-benzyl]-(3,4-dichloro-phenyl)-amino]-oxazol-5-yl}-phenoxy)-phenyl-acetic acid methyl ester]: the 50% inhibitory concentration (IC50) was in the range of 1000 to 10000 nM. As for `COC(=O)c1ccccc1Oc1cccc(-c2cnc(N(Cc3ccc(C(F)(F)P(=O)(O)O)c(Br)c3)c3ccc(Cl)c(Cl)c3)o2)c1` [Example 14, 2-(3-{2-[[3-Bromo-4-(difluoro-phosphono-methyl)-benzyl]-(3,4-dichloro-phenyl)amino]-oxazol-5-yl}-phenoxy)-benzoic acid methyl ester], the IC50 is 1000 to 10000 nM.

Turning to `COC(=O)c1ccccc1-c1ccc(-c2cnc(N(Cc3ccc(C(F)(F)P(=O)(O)O)c(Br)c3)c3ccc(Cl)c(Cl)c3)o2)cc1` [Example 15, 4′-{2-[[3-Bromo-4-(difluoro-phosphono-methyl)-benzyl]-(3,4-dichloro-phenyl)-amino]-oxazol-5-yl}-biphenyl-2-carboxylic acid methyl ester], the IC50 is 1000 to 10000 nM. For the compound `O=C(O)C(Oc1cccc(-c2cnc(N(Cc3ccc(C(F)(F)P(=O)(O)O)c(Br)c3)c3ccc(Cl)c(Cl)c3)o2)c1)c1ccccc1` (stereo not shown) [Example 16, (3-{2-[[3-Bromo-4-(difluoro-phosphono-methyl)-benzyl]-(3,4-dichloro-phenyl)-amino]-oxazol-5-yl}-phenoxy)-phenyl-acetic acid], the IC50 is under 100 nM. In turn, `O=C(O)c1ccccc1-c1ccc(-c2cnc(N(Cc3ccc(C(F)(F)P(=O)(O)O)c(Br)c3)c3ccc(Cl)c(Cl)c3)o2)cc1` [Example 17, 4′-{2-[[3-Bromo-4-(difluoro-phosphono-methyl)-benzyl]-(3,4-dichloro-phenyl)-amino]-oxazol-5-yl}-biphenyl-2-carboxylic acid] came in with an IC50 of 100 to 500 nM. On to `O=C(O)c1ccccc1Oc1cccc(-c2cnc(N(Cc3ccc(C(F)(F)P(=O)(O)O)c(Br)c3)c3ccc(Cl)c(Cl)c3)o2)c1` [Example 18, 2-(3-{2-[[3-Bromo-4-(difluoro-phosphono-methyl)-benzyl]-(3,4-dichloro-phenyl)-amino]-oxazol-5-yl}-phenoxy)-benzoic acid], for which the IC50 was 100 to 500 nM. `COC(=O)c1ccccc1-c1cccc(-c2cnc(N(Cc3ccc(C(F)(F)P(=O)(O)O)c(Br)c3)c3ccc(Cl)c(Cl)c3)o2)c1` [Example 19, 3′-{2-[[3-Bromo-4-(difluoro-phosphono-methyl)-benzyl]-(3,4-dichloro-phenyl)-amino]-oxazol-5-yl}-biphenyl-2-carboxylic acid methyl ester] returned an IC50 of 1000 to 10000 nM.

(Values after patent publication US20060135483A1, “Oxygen/nitrogen heterocycle inhibitors of tyrosine phosphatases” (priority 2004, published 2006).)
